Data on 15 compounds can be found in patent US20090215822A1, “Substituted Oxadiazole Derivatives as Positive Allosteric Modulators of Metabotropic Glutamate Receptors” (NIKEM RESEARCH SRL, priority 2005, published 2009).

For one data set, the target named is T1, rat mGluR5 receptor (Rattus norvegicus, UniProt P31424).
T1 construct: expressed in transfected cells
Kind of data set: mGluR5 assay on HEK-expressing rat mGluR5 (fluorescent cell based Ca2+ mobilization assay). To be noted: for activation of rat mGluR5 receptors without co-addition of glutamate: HEK-rat mGluR5 cell line, no added glutamate or agonist; for EC50: HEK-293 cells stably expressing rat mGluR5, no co-addition of glutamate, mean of at least three independent experiments in duplicate, read-out: Ca++ Flux (mean EC50). As to the method: Positive functional expression of HEK-293 cells stably expressing rat mGluR5 receptor was determined by measuring intracellular Ca^2+ changes using a Fluorometric Imaging Plate Reader (FLIPR, Molecular Devices, Sunnyvale, Calif.) in response to glutamate or selective known mGluR5 agonists and antagonists. Rat mGluR5 RT-PCR products in HEK-293 cells were sequenced and found 100% identical to rat mGluR5 Genbank reference sequence (NM_017012). HEK-293 cells expressing rmGluR5 were maintained in media containing DMEM, dialyzed Fetal Bovine Serum (10%), Glutamax™ (2 mM), Penicillin (100 units/ml), Streptomycin (100 μg/ml), Geneticin (100 μg/ml) and Hygromycin-B (40 μg/ml) at 37° C./5% CO2.
After one day of incubation, cells were washed with assay buffer containing: 142 mM NaCl, 6 mM KCl, 1 mM Mg2SO4, 1 mM CaCl2, 20 mM HEPES, 1 g/L glucose, 0.125 mM sulfinpyrazone, pH 7.4. After 60 min of loading with 4 uM Fluo-4 (TefLabs, Austin, Tex.), the cells were washed three times with 50 μl of PBS Buffer and resuspended in […] of assay Buffer. The plates were then transferred to a Fluorometric Imaging Plate Reader (FLIPR, Molecular Devices, Sunnyvale, Calif.) for the assessment of intracellular calcium flux. After monitoring the baseline fluorescence for 10 seconds, increasing concentrations of representative compound (from 0.01 to 60 μM) of the present invention diluted in Assay Buffer (15 μl of 4× dilutions) was added to the cell. The final DMSO concentration in the assay was 0.3%. In each experiment, fluorescence was then monitored as a function of time for 3 minutes and the data analyzed using Microsoft Excel and GraphPad Prism. Each data point was also measured two times.
Under these experimental conditions, this HEK-rat mGluR5 cell line is able to directly detect positive allosteric modulators without the need of co-addition of glutamate or mGluR5 agonist.
The concentration-response curves of representative compounds of the present invention were generated using the Prism GraphPad software (Graph Pad Inc, San Diego, USA). The curves were fitted to a four-parameter logistic equation:
(Y=Bottom+(Top-Bottom)/(1+10̂((Log EC50−X)*Hill Slope)
allowing determination of EC50 values.
The Table 1 below represents the mean EC50 obtained from at least three independent experiments of selected molecules performed in duplicate.

In a further data set the target is T2, mGluR5 (Rattus norvegicus, UniProt P31424).
T2 construct: positive allosteric modulators of mGluR5 receptors in native preparations; endogenous in cells; host or cells: primary cortical astrocytes from Sprague-Dawley rat embryos (E16-19)
To be noted: Liu et al (2006), Zhang et al (2005); cited from earlier work.

Molecules are shown by their SMILES.

T2 sequence (P31424 21-1203): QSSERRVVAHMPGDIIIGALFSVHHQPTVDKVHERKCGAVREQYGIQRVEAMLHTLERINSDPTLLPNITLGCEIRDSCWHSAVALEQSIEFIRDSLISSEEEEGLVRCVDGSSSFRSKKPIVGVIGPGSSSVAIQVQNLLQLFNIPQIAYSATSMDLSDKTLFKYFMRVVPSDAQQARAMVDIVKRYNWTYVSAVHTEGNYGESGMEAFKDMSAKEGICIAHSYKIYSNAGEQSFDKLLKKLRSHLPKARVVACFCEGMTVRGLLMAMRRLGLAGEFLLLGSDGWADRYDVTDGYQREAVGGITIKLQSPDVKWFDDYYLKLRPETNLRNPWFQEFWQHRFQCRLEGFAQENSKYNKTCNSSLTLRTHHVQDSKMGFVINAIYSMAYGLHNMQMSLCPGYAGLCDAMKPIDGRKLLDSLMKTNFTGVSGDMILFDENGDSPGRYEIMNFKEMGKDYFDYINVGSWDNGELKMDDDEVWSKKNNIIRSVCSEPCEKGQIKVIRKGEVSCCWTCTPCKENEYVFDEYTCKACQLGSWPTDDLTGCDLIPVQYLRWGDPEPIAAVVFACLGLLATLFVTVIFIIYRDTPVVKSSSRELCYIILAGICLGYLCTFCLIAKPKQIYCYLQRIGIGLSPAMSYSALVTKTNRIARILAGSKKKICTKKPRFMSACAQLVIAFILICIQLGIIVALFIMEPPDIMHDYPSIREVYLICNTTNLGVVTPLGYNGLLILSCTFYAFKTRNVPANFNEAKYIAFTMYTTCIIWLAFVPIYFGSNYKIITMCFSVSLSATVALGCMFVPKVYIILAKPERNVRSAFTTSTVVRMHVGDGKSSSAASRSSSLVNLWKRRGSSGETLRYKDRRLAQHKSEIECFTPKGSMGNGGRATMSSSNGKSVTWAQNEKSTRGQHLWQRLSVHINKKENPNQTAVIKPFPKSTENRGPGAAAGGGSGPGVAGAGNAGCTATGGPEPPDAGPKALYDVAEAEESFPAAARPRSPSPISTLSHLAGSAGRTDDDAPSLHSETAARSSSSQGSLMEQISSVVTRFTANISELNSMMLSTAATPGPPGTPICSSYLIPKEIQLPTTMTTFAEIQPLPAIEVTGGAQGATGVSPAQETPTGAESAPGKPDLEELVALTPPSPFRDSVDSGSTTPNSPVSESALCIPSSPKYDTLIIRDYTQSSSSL
T1 sequence (P31424 21-1171 isoform P31424-2 limits assumed): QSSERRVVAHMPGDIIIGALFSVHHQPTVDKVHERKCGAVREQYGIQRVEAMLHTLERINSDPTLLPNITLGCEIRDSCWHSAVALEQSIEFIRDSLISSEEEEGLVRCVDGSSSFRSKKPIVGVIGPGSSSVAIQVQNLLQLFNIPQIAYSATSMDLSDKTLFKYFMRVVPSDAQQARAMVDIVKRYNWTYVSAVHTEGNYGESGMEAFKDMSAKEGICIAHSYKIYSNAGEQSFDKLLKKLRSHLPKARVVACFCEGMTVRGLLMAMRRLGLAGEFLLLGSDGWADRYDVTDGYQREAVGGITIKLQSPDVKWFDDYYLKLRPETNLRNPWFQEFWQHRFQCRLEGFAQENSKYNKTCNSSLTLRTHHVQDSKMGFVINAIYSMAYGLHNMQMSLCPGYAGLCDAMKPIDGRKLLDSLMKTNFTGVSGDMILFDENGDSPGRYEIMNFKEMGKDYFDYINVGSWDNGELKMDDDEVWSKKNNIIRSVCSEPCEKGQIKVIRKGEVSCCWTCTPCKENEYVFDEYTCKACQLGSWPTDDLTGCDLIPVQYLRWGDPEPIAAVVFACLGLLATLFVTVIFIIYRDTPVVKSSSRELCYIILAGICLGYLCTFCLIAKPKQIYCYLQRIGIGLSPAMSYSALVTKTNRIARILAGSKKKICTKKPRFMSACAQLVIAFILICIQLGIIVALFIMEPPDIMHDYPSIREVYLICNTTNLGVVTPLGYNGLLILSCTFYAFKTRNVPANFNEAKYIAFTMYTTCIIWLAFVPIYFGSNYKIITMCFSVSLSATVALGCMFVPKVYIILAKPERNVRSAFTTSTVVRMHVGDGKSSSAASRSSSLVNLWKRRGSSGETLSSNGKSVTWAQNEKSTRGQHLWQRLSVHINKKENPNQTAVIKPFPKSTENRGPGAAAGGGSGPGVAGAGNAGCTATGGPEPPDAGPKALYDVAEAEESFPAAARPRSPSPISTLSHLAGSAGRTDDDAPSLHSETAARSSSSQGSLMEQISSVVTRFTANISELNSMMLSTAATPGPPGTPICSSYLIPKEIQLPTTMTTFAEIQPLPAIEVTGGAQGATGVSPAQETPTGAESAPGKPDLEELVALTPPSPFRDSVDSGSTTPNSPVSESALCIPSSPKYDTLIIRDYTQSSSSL

Take `N#Cc1cccc(C(=O)Nc2cc(-c3ccccc3)nn2-c2ccccc2)c1` [CDPPB, reference compound]: the “activation of rat mGluR5 receptors without co-addition of glutamate” value on rat mGluR5 receptor was “activating”. Further, at mGluR5, the “activity in rat cortical astrocytes culture in the absence of added glutamate” value (“activity” for short) is “inactive”.
For the compound `O=C(Nc1ccc(Cl)cc1CN1C(=O)c2ccccc2C1=O)c1ccccc1O` [CPPHA, reference compound], the “activation of rat mGluR5 receptors without co-addition of glutamate” value at rat mGluR5 receptor is reported as “activating”. At mGluR5, the “activity” value is “inactive”.
With `Fc1cccc(/C=N/N=C/c2cccc(F)c2)c1` [DFB, reference compound], the “activation of rat mGluR5 receptors without co-addition of glutamate” value at rat mGluR5 receptor was “activating”. Further, on mGluR5, the “activity” value is “inactive”.
Consider `O=C(c1ccc(F)nc1)N1CCCC(c2noc(-c3ccccc3)n2)C1` (stereo not drawn) [Example 29, (6-Fluoro-pyridin-3-yl)-[3-(5-phenyl-[1,2,4]oxadiazol-3-yl)-piperidin-1-yl]-methanone], for which the melting point is 109 to 111 °C. The EC50 at rat mGluR5 receptor was under 1000 nM.
With `O=C(c1ccc(F)nc1)N1CCCC(c2noc(-c3cscn3)n2)C1` (stereo not drawn) [Example 30, (6-Fluoro-pyridin-3-yl)-[3-(5-thiazol-4-yl-[1,2,4]oxadiazol-3-yl)-piperidin-1-yl]-methanone], the melting point came out at 90 °C. Moreover, the EC50 on rat mGluR5 receptor is over 10000 nM.
For `Cc1cc(F)ccc1C(=O)N1CCCC(c2noc(-c3ccc(F)cc3F)n2)C1` (stereo not drawn) [Example 31, {3-[5-(2,4-Difluoro-phenyl)-[1,2,4]oxadiazol-3-yl]-piperidin-1-yl}-(4-fluoro-2-methyl-phenyl)-methanone], in that order: 110 °C and 1000 to 10000 nM.
For `O=C(c1ccc(F)c(F)c1)N1CCCC(c2noc(-c3ccccc3)n2)C1` (stereo not drawn) [Example 32, (3,4-Difluoro-phenyl)-[3-(5-phenyl-[1,2,4]oxadiazol-3-yl)-piperidin-1-yl]-methanone], in that order: 116 to 118 °C and under 1000 nM.
For `O=C(c1ccc(F)cc1F)N1CCCC(c2noc(-c3ccccc3)n2)C1` (stereo not drawn) [Example 33, (2,4-Difluoro-phenyl)-[3-(5-phenyl-[1,2,4]oxadiazol-3-yl)-piperidin-1-yl]-methanone], in that order: 116 to 117 °C and under 1000 nM.
The compound `O=C(c1ccc(F)nc1)N1CCC[C@H](c2noc(-c3ccc(F)cc3)n2)C1` [Example 36, {(S)-3-[5-(4-Fluoro-phenyl)-[1,2,4]oxadiazol-3-yl]-piperidin-1-yl}-(6-fluoro-pyridin-3-yl)-methanone] returned a melting point of 103 to 104 °C. Besides, the 50% effective concentration (EC50) at rat mGluR5 receptor is under 1000 nM.
For `O=C(c1ccc(F)c(F)c1)N1CCC[C@H](c2noc(-c3ccc(F)cc3)n2)C1` [Example 37, (3,4-Difluoro-phenyl)-{(S)-3-[5-(4-fluoro-phenyl)-[1,2,4]oxadiazol-3-yl]-piperidin-1-yl}-methanone], in that order: 120 °C and under 1000 nM.
`Cc1noc(C)c1C(=O)N1CCC[C@H](c2noc(-c3ccc(F)cc3)n2)C1` [Example 38, (3,5-Dimethyl-isoxazol-4-yl)-{(S)-3-[5-(4-fluoro-phenyl)-[1,2,4]oxadiazol-3-yl]-piperidin-1-yl}-methanone] came in with a melting point of 85 °C. Also, the EC50 on rat mGluR5 receptor was under 1000 nM.
In turn, `Cc1oncc1C(=O)N1CCC[C@H](c2noc(-c3ccc(F)cc3)n2)C1` [Example 39, {(S)-3-[5-(4-Fluoro-phenyl)-[1,2,4]oxadiazol-3-yl]-piperidin-1-yl}-(5-methyl-isoxazol-4-yl)-methanone] registered a melting point of 65 °C. In addition, the EC50 at rat mGluR5 receptor was under 1000 nM.
Take `O=C(c1ccnc(F)c1)N1CCC[C@H](c2noc(-c3ccc(F)cc3)n2)C1` [Example 40, {(S)-3-[5-(4-Fluoro-phenyl)-[1,2,4]oxadiazol-3-yl]-piperidin-1-yl}-(2-fluoro-pyridin-4-yl)-methanone]: the melting point lay in the range of 117 to 119 °C. Besides, at rat mGluR5 receptor, the 50% effective concentration (EC50) is under 1000 nM.
For `O=C(c1ccc(F)cn1)N1CCC[C@H](c2noc(-c3ccc(F)cc3)n2)C1` [Example 42, {(S)-3-[5-(4-Fluoro-phenyl)-[1,2,4]oxadiazol-3-yl]-piperidin-1-yl}-(5-fluoro-pyridin-2-yl)-methanone], in that order: 93 to 95 °C and 1000 to 10000 nM.
Consider `O=C(c1ccc(F)cc1)N1CCC[C@H](c2noc(-c3ccc(F)cn3)n2)C1` [Example 44, (S)-(4-fluorophenyl)-{3-[5-(5-fluoropyridin-2-yl)-[1,2,4]oxadiazol-3-yl]-piperidin-1-yl}-methanone], for which the melting point was 108 to 110 °C. For the same compound, the EC50 at rat mGluR5 receptor is under 1000 nM.

In general, EC50 refers to the concentration giving half of the maximal effect. In general, melting point refers to the temperature of the solid-liquid transition.
